Converted amounts (≈) assume the structure as drawn.
What was measured:
[1] = test system: Mycobacterium tuberculosis; assay: Antitubercular activity against Mycobacterium tuberculosis H37Rv incubated for 6 days by resazurin dye based fluorescence assay; assay type: functional; details: 144 h
[2] = Protection Index, ratio of CC50 for human HepG2 cells to MIC for Mycobacterium tuberculosis H37Rv; assay type: toxicity; details: read-out: PI
[3] = Chromatographic lipophilicity, log D of compound in PBS ay pH 7.4 by UV-HPLC analysis; assay type: physicochemical; details: for chromatographic logD: PBS
Albumin = Albumin (Homo sapiens, UniProt P02768); assay: Binding affinity to HSA by HPLC analysis; assay type: ADME; details: isolated protein
Albumin, sequence (P02768 whole entry): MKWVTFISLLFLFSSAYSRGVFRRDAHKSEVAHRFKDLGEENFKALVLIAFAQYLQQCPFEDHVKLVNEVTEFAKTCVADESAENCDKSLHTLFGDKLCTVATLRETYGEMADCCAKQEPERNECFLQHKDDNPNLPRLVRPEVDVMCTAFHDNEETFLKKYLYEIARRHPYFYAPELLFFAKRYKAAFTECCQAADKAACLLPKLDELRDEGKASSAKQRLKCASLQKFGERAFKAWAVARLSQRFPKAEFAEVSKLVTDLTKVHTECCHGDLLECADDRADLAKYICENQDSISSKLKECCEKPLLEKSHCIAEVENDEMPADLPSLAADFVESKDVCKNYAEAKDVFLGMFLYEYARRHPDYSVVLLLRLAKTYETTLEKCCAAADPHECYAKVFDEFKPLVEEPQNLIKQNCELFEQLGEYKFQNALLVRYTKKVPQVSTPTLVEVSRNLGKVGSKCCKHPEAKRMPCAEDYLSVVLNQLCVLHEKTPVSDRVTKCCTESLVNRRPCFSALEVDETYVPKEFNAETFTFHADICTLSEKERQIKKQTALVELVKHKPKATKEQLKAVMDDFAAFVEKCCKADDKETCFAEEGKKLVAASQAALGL

[4] = Kinetic solubility of the compound in pH 7.4 phosphate buffered saline; assay type: physicochemical; details: read-out: Kinetic_solubility
[5] = Solubility of the compound in FASSIF at 1 mg incubated for 4 hrs by UPLC-MS analysis; assay type: physicochemical
[6] = Cytotoxicity against human HepG2 cells incubated for 48 hrs by CellTiter Glo assay; assay type: cell-based
[7] = target: Voltage-gated inwardly rectifying potassium channel KCNH2 (Homo sapiens, UniProt Q12809); assay: Inhibition of human ERG
Voltage-gated inwardly rectifying potassium channel KCNH2, sequence (Q12809 whole entry): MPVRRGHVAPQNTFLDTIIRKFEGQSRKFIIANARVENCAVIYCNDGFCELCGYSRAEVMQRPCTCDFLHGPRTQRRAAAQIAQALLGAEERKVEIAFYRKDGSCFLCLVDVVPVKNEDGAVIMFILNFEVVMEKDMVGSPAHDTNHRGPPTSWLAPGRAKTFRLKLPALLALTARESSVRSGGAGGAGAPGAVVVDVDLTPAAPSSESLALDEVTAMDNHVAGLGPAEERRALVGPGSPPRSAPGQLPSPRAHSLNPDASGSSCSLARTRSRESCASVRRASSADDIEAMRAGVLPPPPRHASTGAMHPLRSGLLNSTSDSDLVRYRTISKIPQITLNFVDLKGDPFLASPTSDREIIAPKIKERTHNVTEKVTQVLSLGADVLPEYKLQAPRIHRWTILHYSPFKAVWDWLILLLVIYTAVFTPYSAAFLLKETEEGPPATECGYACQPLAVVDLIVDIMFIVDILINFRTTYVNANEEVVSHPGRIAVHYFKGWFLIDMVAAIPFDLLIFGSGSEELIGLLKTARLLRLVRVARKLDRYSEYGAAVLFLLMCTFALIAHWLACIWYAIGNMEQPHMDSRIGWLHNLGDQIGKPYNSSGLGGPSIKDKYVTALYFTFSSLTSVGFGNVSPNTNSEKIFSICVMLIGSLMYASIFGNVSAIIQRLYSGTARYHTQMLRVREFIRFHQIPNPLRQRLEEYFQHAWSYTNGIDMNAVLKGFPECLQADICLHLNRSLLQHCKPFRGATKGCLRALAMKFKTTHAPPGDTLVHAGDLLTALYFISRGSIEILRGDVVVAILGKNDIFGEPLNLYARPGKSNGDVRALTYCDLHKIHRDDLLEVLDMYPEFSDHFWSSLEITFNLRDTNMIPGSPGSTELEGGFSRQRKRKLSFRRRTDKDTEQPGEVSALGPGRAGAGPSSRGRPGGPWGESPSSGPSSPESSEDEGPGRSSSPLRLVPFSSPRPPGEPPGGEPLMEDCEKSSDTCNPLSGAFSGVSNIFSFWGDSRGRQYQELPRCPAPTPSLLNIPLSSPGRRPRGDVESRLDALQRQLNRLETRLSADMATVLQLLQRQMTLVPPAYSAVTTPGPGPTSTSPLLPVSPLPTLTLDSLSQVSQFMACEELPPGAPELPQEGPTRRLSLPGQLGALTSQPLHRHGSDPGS

[8] = Permeability of the compound in pH 7.05 phosphate buffer incubated for 3 hrs by artificial membrane permeability assay based LCMS analysis; assay type: ADME; details: PAMPA, read-out: permeability
[9] = test system: Mycobacterium tuberculosis; assay: Antitubercular activity against Mycobacterium tuberculosis H37Rv infected in C57BL/6 mouse assessed as reduction in bacterial load in lungs at 200 mg/kg administered once daily starting from 5 days post infection for 4 consecutive days and measured on day 9; assay type: functional
[10] = Intrinsic clearance in human liver microsomes at 0.5 uM measured up to 30 mins in presence of NADPH by UPLC/MS/MS analysis; assay type: ADME, Microsome; details: 0.5 h
[11] = test system: Mycobacterium tuberculosis; assay: Antitubercular activity against Mycobacterium tuberculosis H37Rv infected in C57BL/6 mouse assessed as reduction in bacterial load in lungs at 30 mg/kg administered once daily starting from 5 days post infection for 4 consecutive days and measured on day 9; assay type: functional

Row | SMILES | MIC [1] [µM] | selectivity ratio [2] | chromatographic logD [3] | Activity (Albumin) [%] | solubility kinetic [4] [µM] | solubility at 4 h [5] [µg/mL] | CC50 at 48 h [6] [µM] | IC50 [7] [µM] | Papp at 3 h [8] [×10⁻⁶ cm/s] | Activity [9] [log10CFU] | CLH [10] [mL/min/g] | logD ([3]; buffer) | Activity [11] [log10CFU]
1 | Cc1c(CN2CCOCC2)cc(-c2ccc(C(C)C)cc2)n1-c1ccc(F)cc1 | 0.12 (≈ 0.0471 µg/mL) | 333 | 8.1 | 98.37 | < 1 | 5 (≈ 12.7 µM) |  |  |  |  |  |  | 
2 | CC(C)n1nc(CN2CCOCC2)cc1-c1ccc(C(F)(F)F)cc1 | 23 (≈ 8.13 µg/mL) | > 4 |  |  |  |  | > 100 |  |  |  |  |  | 
3 | COC1CCN(Cc2cc(-c3ccc(C(F)(F)F)cc3)n(C(C)C)n2)CC1 | 2.5 (≈ 0.954 µg/mL) | 32 |  |  |  |  | 79.4 |  |  |  |  |  | 
4 | CC(C)c1ccc(-c2cc(CN3CC[Si](C)(C)CC3)nn2C2CCCCC2)cc1 | 0.04 (≈ 0.0164 µg/mL) | 315 |  | 97.35 | 46 (≈ 18.8 µg/mL) |  | 12.6 | 8 |  |  |  |  | 
5 | COC1CCN(Cc2cc(-c3ccc(C(F)(F)F)cc3)n(C3CCCCC3)n2)CC1 | 1.2 (≈ 0.506 µg/mL) | 26 |  |  |  |  | 31.6 |  |  |  |  |  | 
6 | CC(C)(C)OC(=O)N1CCN(Cc2cc(-c3ccc(C(F)(F)F)cc3)n(C3CCCCC3)n2)CC1 | 2 (≈ 0.985 µg/mL) | > 50 |  |  |  |  | > 100 |  |  |  |  |  | 
7 | CC(C)(C)OC(=O)N1CCN(Cc2cc(-c3ccc(C(F)(F)F)cc3)n(-c3ccc(F)cc3)n2)CC1 | 4 (≈ 2.02 µg/mL) | > 25 |  |  |  |  | > 100 |  |  |  |  |  | 
8 | FC(F)(F)c1ccc(-c2cc(CN3CCOCC3)nn2C2CCCCC2)cc1 | 2.5 (≈ 0.984 µg/mL) | 20 |  |  |  |  | 50 |  |  |  |  |  | 
9 | FC(F)(F)c1ccc(-c2cc(CN3CCSCC3)nn2C2CCCCC2)cc1 | 1.2 (≈ 0.491 µg/mL) | 53 |  |  |  |  | 63.1 |  |  |  |  |  | 
10 | COC1CCN(Cc2cc(-c3ccc(C(F)(F)F)cc3)n(-c3ccc(F)cc3)n2)CC1 | 0.3 (≈ 0.13 µg/mL) | 105 | 6.67 | 96.47 | 258 (≈ 112 µg/mL) |  | 31.6 | 3.2 | 17 |  |  |  | 
11 | CC(C)c1ccc(-c2cc(CN3CCOCC3)nn2C2CCC2)cc1 | 0.4 (≈ 0.136 µg/mL) | 125 | 7.37 | 96.72 | 305 to 306 | 139 (≈ 409 µM) | 50 | 32 | 61 | 0.3 | 2.8 |  | 
12 | C[Si]1(C)CCN(Cc2cc(-c3ccc(C(F)(F)F)cc3)n(C3CCCCC3)n2)CC1 | 0.07 (≈ 0.0305 µg/mL) | 180 | 8.49 | 96.32 | 69 (≈ 30.1 µg/mL) |  | 12.6 | 2.5 |  |  |  |  | 
13 | COC1CCN(Cc2cc(-c3ccc(C(C)C)cc3)n(-c3ccc(F)cc3)n2)CC1 | 0.3 (≈ 0.122 µg/mL) | 105 | 7.31 | 96.42 | 152 (≈ 61.9 µg/mL) |  | 31.6 | 6.31 | 44 | 1.5 |  |  | 
14 | CC(C)c1ccc(-c2cc(CN3CCOCC3)nn2C2CCCCC2)cc1 | 0.4 (≈ 0.147 µg/mL) | 158 | 8.29 | 97.11 | 78.5 (≈ 28.9 µg/mL) | 100 (≈ 272 µM) | 63.1 | > 50 | 35 | 0.4 | 3.4 |  | 
15 | C[Si]1(C)CCN(Cc2cc(-c3ccc(C(F)(F)F)cc3)n(-c3ccc(F)cc3)n2)CC1 | 0.02 (≈ 0.00895 µg/mL) |  | 8.13 | 96.65 | 53 (≈ 23.7 µg/mL) |  | 16 |  |  |  |  |  | 
16 | CC(C)c1ccc(-c2cc(CN3CCN(c4ccccn4)CC3)nn2C2CCCCC2)cc1 | 0.5 (≈ 0.222 µg/mL) | 80 |  | 98.41 | 15 (≈ 6.65 µg/mL) |  | 40 | > 50 | < 0.3 |  |  | 9.83 | 
17 | CC(C)c1ccc(-c2cc(CN3CC[Si](C)(C)CC3)nn2-c2ccc(F)cc2)cc1 | 0.00925 (≈ 0.0039 µg/mL) | 1360 | 8.82 | 97.49 | 41 (≈ 17.3 µg/mL) |  | 12.6 | 2 |  |  |  |  | 
18 | FC(F)(F)c1ccc(-c2cc(CN3CCN(c4ccccn4)CC3)nn2C2CCCCC2)cc1 | 1 (≈ 0.47 µg/mL) | 50 |  |  |  |  | 50 |  |  |  |  |  | 
19 | FC(F)(F)c1ccc(-c2cc(CN3CCCCC3)nn2C2CCCCC2)cc1 | 2.5 (≈ 0.979 µg/mL) | 20 |  |  |  |  | 50 |  |  |  |  |  | 
20 | Fc1ccc(-n2nc(CN3CCN(c4ccccn4)CC3)cc2-c2ccc(C(F)(F)F)cc2)cc1 | 2 (≈ 0.963 µg/mL) | 16 |  |  |  |  | 32 |  |  |  |  |  | 
21 | Fc1ccc(-n2nc(CN3CCCCC3)cc2-c2ccc(C(F)(F)F)cc2)cc1 | 2.5 (≈ 1.01 µg/mL) | 16 |  |  |  |  | 40 |  |  |  |  |  | 
22 | CC(C)c1ccc(-c2cc(CN3CCN(c4ccccn4)CC3)nn2-c2ccc(F)cc2)cc1 | 0.5 (≈ 0.228 µg/mL) | 128 | 8.76 | 98.45 | 6 (≈ 2.73 µg/mL) |  | 64 | 25.1 | < 3 |  |  |  | 
23 | COc1c(N2C[C@@H]3CCCN[C@@H]3C2)c(F)cc2c(=O)c(C(=O)O)cn(C3CC3)c12 [MOXIFLOXACIN] |  |  |  |  |  |  |  |  |  |  |  |  | 3.5

Reference: ChEMBL document CHEMBL4304832, “Novel Pyrazole-Containing Compounds Active against Mycobacterium tuberculosis” (ACS Med Chem Lett, 2019)
